Experiments:
dog [1] = details: Subchronic oral toxicity in nonrodent, beagle, Capsule, dose end: 13 week, group: systemic
rat [2] = details: Combined chronic toxicity/carcinogenicity, sprague dawley, Oral, [Not Specified], dose end: 104 week, group: systemic
mouse [3] = details: Carcinogenicity, cd1, Oral, Feed, dose end: 80 week, group: systemic
rat [4] = details: Multigenerational reproductive toxicity study, sprague dawley, Oral, Feed, dose end: 2 generation
rat [5] = details: Subchronic oral toxicity in rodents, sprague dawley, Feed, dose end: 13 week, group: systemic
rat [6] = details: Prenatal developmental toxicity study, sprague dawley, Oral, Gavage/Intubation, dose end: 16 GD
dog [7] = details: Chronic toxicity, beagle, Oral, Capsule, dose end: 52 week, group: systemic
mouse [8] = details: Carcinogenicity, cd1, Oral, Feed, dose end: 104 week, group: systemic
rat [9] = details: Subchronic oral toxicity in rodents, wistar, Feed, dose end: 13 week, group: systemic
rat [10] = details: Multigenerational reproductive toxicity study, sprague dawley, Oral, Feed, dose end: 2 generation; remark: listed apart in the source
dog [11] = details: Chronic toxicity; beagle; Oral; Feed; dose end: 2 year; group: systemic; systemic / in life observation / body weight / body weight gain + systemic / in life observation / food consumption / food consumption + …
mouse [12] = details: Subchronic oral toxicity in rodents, cd1, Feed, dose end: 90 day, group: systemic
rat [13] = details: Chronic toxicity; sprague dawley (CD); Oral; Feed; dose end: 104 week; group: systemic; systemic / in life observation / body weight / body weight + systemic / in life observation / body weight / body weight gain
rat [14] = details: Combined chronic toxicity/carcinogenicity, other, Oral, Feed, dose end: 104 week, group: systemic
dog [15] = details: Sub-acute repeat dose toxicity; other; Oral; Feed; dose end: 4 week; group: systemic; systemic / in life observation / body weight / body weight gain + systemic / in life observation / food consumption / food consumption
rat [16] = details: Chronic toxicity; wistar; Oral; Feed; dose end: 2 year; group: systemic; systemic / hematology / hemoglobin (hgb) / hemoglobin (hgb) + systemic / in life observation / body weight / body weight + systemic / organ …
dog [17] = details: Chronic toxicity, beagle, Oral, Capsule, dose end: 52 week
mouse [18] = details: Carcinogenicity, cd1, Oral, Feed, dose end: 18 month, group: systemic
rat [19] = details: Combined chronic toxicity/carcinogenicity, sprague dawley, Oral, Feed, dose end: 24 month
rat [20] = details: Prenatal developmental toxicity study, sprague dawley, Oral, Gavage/Intubation, dose end: 15 GD
[21] = systemic / in life observation / body weight / body weight gain + systemic / urinalysis / porphyrins / porphyrins
[22] = systemic / in life observation / body weight / body weight gain + systemic / urinalysis / porphyrins / porphyrins + systemic / hematology / …
[23] = systemic / pathology microscopic / liver / discolored
[24] = systemic / pathology microscopic / liver / discolored + systemic / clinical chemistry / cholesterol / cholesterol + systemic / in life …
[25] = systemic / in life observation / body weight / body weight gain + systemic / pathology microscopic / liver / inflammation
[26] = group: offspring, systemic / in life observation / body weight / offspring (pup) weight
[27] = group: parental, systemic / hematology / mean corpuscular (cell) volume (mcv) / mean corpuscular (cell) volume (mcv) + systemic / hematology / mean …
[28] = systemic / clinical chemistry / alanine aminotransferase (alt/sgpt) / alanine aminotransferase (alt/sgpt) + systemic / clinical chemistry / …
[29] = group: developmental, developmental / developmental malformation / bone / thickened + developmental / developmental malformation / bone / wavy
[30] = group: maternal, systemic / in life observation / clinical signs / abdominogenital staining + systemic / in life observation / clinical signs / discharge on …
[31] = systemic / urinalysis / porphyrins / porphyrins
[32] = systemic / urinalysis / porphyrins / porphyrins + systemic / organ weight / liver / absolute
[33] = systemic / clinical chemistry / cholesterol / cholesterol + systemic / clinical chemistry / gamma glutamyl transpeptides (gtp) / gamma …
[34] = systemic / hematology / anemia / anemia - hemolytic + systemic / hematology / hemoglobin (hgb) / hemoglobin (hgb) + systemic / hematology / …
[35] = group: parental, systemic / pathology gross / lung / foci + systemic / pathology microscopic / kidney / dilatation + systemic / pathology microscopic / …
[36] = systemic / pathology microscopic / liver / hypertrophy
[37] = systemic / pathology microscopic / liver / hypertrophy + systemic / organ weight / liver / absolute + systemic / organ weight / liver / …
[38] = systemic / clinical chemistry / thyroxine (t4) / thyroxine (t4), total + systemic / pathology microscopic / liver / cellular alteration + …
[39] = group: cholinesterase, cholinesterase / cholinesterase / cholinesterase / plasma cholinesterase (che)
[40] = group: cholinesterase, cholinesterase / cholinesterase / cholinesterase / plasma cholinesterase (che) + cholinesterase / cholinesterase / cholinesterase / brain …
[41] = group: systemic, systemic / in life observation / clinical signs / tremors + systemic / in life observation / clinical signs / vomitting
[42] = systemic / in life observation / body weight / body weight + systemic / in life observation / food consumption / food consumption
[43] = group: systemic, systemic / hematology / erythrocyte (rbc) count differential / erythrocyte (rbc) + systemic / hematology / hematocrit (hct) / hematocrit (…
[44] = group: developmental, developmental / developmental malformation / bone / incomplete ossification
[45] = group: developmental, developmental / developmental malformation / bone / incomplete ossification + developmental / developmental malformation / bone / …
[46] = group: maternal, systemic / in life observation / food consumption / food consumption + systemic / in life observation / body weight / body weight + systemic…

CCOC(=O)C(Cl)Cc1cc(-n2nc(C)n(C(F)F)c2=O)c(F)cc1Cl (stereo not drawn) [Carfentrazone-ethyl]
LEL (dog [1]; [21]): 150 mg/kg/day
LOAEL (dog [1]; [21]): 150 mg/kg/day
NEL (dog [1]; [22]): 50 mg/kg/day
NOAEL (dog [1]; [22]): 50 mg/kg/day
LEL (rat [2]; [23]): 12 mg/kg/day
LOAEL (rat [2]; [23]): 12 mg/kg/day
NEL (rat [2]; [24]): 3 mg/kg/day
NOAEL (rat [2]; [24]): 3 mg/kg/day
LEL (mouse [3]; [25]): 10 mg/kg/day
NEL (mouse [3]; [25]): < 10 mg/kg/day
NOAEL (mouse [3]; systemic / in life observation / body weight / body weight gain + systemic / pathology microscopic / liver / inflammation + systemic / in …): 10 mg/kg/day
LOAEL (mouse [3]; systemic / pathology microscopic / liver / inflammation + systemic / in life observation / mortality / mortality + systemic / pathology …): 110 mg/kg/day
LEL (rat [4]; [26]): 343 mg/kg/day
LOAEL (rat [4]; [26]): 343 mg/kg/day
NEL (rat [4]; [26]): 127 mg/kg/day
NOAEL (rat [4]; [26]): 127 mg/kg/day
LEL (rat [4]; [27]): 343 mg/kg/day
LOAEL (rat [4]; [27]): 343 mg/kg/day
NEL (rat [4]; [27]): 127 mg/kg/day
NOAEL (rat [4]; [27]): 127 mg/kg/day
LOAEL (rat [5]; [28]): 470 mg/kg/day
NEL (rat [5]; [28]): 58 mg/kg/day
NOAEL (rat [5]; [28]): 226 mg/kg/day
LEL (rat [5]; systemic / in life observation / clinical signs / urine, discoloration + systemic / in life observation / food consumption / food …): 226 mg/kg/day
LEL (rat [6]; [29]): 1250 mg/kg/day
LOAEL (rat [6]; [29]): 1250 mg/kg/day
NEL (rat [6]; [29]): 600 mg/kg/day
NOAEL (rat [6]; [29]): 600 mg/kg/day
LEL (rat [6]; [30]): 600 mg/kg/day
LOAEL (rat [6]; [30]): 600 mg/kg/day
NEL (rat [6]; [30]): 100 mg/kg/day
NOAEL (rat [6]; [30]): 100 mg/kg/day
LEL (dog [7]; [31]): 150 mg/kg/day
LOAEL (dog [7]; [31]): 150 mg/kg/day
NEL (dog [7]; [32]): 50 mg/kg/day
NOAEL (dog [7]; [32]): 50 mg/kg/day

COC(=O)c1c(Cl)c(Cl)c(C(=O)OC)c(Cl)c1Cl [Chlorthal-dimethyl]
LOAEL (mouse [8]; [33]): 1140 mg/kg/day
NEL (mouse [8]; [33]): 15 mg/kg/day
NOAEL (mouse [8]; [33]): 510 mg/kg/day
LEL (mouse [8]; systemic / clinical chemistry / gamma glutamyl transpeptides (gtp) / gamma glutamyl transpeptides (gtp) + systemic / clinical chemistry / …): 150 mg/kg/day
LOAEL (rat [9]; [34]): > 2500 mg/kg/day
NEL (rat [9]; [34]): 5 mg/kg/day
NOAEL (rat [9]; [34]): ≥ 2500 mg/kg/day
LEL (rat [9]; systemic / hematology / polychromasia / polychromasia): 17 mg/kg/day
LEL (rat [10]; [26]): 233 mg/kg/day
LOAEL (rat [10]; [26]): 233 mg/kg/day
NEL (rat [10]; [26]): 45 mg/kg/day
NOAEL (rat [10]; [26]): 45 mg/kg/day
LOAEL (rat [10]; [35]): 233 mg/kg/day
NOAEL (rat [10]; [35]): 45 mg/kg/day
LEL (rat [10]; group: parental, systemic / pathology microscopic / lung / infiltration cellular + systemic / pathology microscopic / thymus / involution): 45 mg/kg/day
LEL (dog [11]): 100 mg/kg/day
LOAEL (dog [11]): > 100 mg/kg/day
NEL (dog [11]): 15 mg/kg/day
NOAEL (dog [11]): ≥ 100 mg/kg/day
LEL (mouse [12]; [36]): 1050 mg/kg/day
LOAEL (mouse [12]; [36]): 1240 mg/kg/day
NEL (mouse [12]; [37]): 517 mg/kg/day
NOAEL (mouse [12]; [37]): 406 mg/kg/day
LEL (rat [13]): 1000 mg/kg/day
LOAEL (rat [13]): 1000 mg/kg/day
NEL (rat [13]): 50 mg/kg/day
NOAEL (rat [13]): 50 mg/kg/day
LEL (rat [14]; [38]): 10 mg/kg/day
LOAEL (rat [14]; [38]): 10 mg/kg/day
NOAEL (rat [14]; [38]): 1 mg/kg/day
NEL (rat [14]; systemic / pathology microscopic / eye / atrophy + systemic / pathology microscopic / liver / cellular alteration + systemic / pathology …): 1 mg/kg/day
LEL (dog [15]): 250 mg/kg/day
LOAEL (dog [15]): > 1250 mg/kg/day
NEL (dog [15]): 50 mg/kg/day
NOAEL (dog [15]): ≥ 1250 mg/kg/day
LEL (rat [16]): 80 mg/kg/day
LOAEL (rat [16]): > 80 mg/kg/day
NEL (rat [16]): 20 mg/kg/day
NOAEL (rat [16]): ≥ 80 mg/kg/day

CCOP(=S)(OCC)SCSCC [Phorate]
LEL (dog [17]; [39]): 0.05 mg/kg/day
LOAEL (dog [17]; [39]): 0.05 mg/kg/day
NEL (dog [17]; [40]): 0.01 mg/kg/day
NOAEL (dog [17]; [40]): 0.01 mg/kg/day
LOAEL (dog [17]; group: systemic, systemic / in life observation / clinical signs / tremors + systemic / in life observation / body weight / body weight gain): 0.25 mg/kg/day
NEL (dog [17]; [41]): 0.005 mg/kg/day
NOAEL (dog [17]; [41]): 0.05 mg/kg/day
LEL (dog [17]; group: systemic, systemic / in life observation / clinical signs / vomitting): 0.01 mg/kg/day
LOAEL (mouse [18]; systemic / in life observation / body weight / body weight): 0.8 mg/kg/day
LEL (mouse [18]; [42]): 0.8 mg/kg/day
NEL (mouse [18]; [42]): 0.4 mg/kg/day
NOAEL (mouse [18]; [42]): 0.4 mg/kg/day
LEL (rat [19]; [39]): 0.05 mg/kg/day
LOAEL (rat [19]; [39]): 0.05 mg/kg/day
NEL (rat [19]; [39]): < 0.05 mg/kg/day
NOAEL (rat [19]; [39]): < 0.05 mg/kg/day
LEL (rat [19]; [43]): 0.3 mg/kg/day
LOAEL (rat [19]; [43]): > 0.3 mg/kg/day
NEL (rat [19]; [43]): 0.15 mg/kg/day
NOAEL (rat [19]; [43]): ≥ 0.3 mg/kg/day
LEL (rat [20]; [44]): 0.1 mg/kg/day
NEL (rat [20]; [44]): < 0.1 mg/kg/day
LOAEL (rat [20]; [45]): 0.4 mg/kg/day
NOAEL (rat [20]; [45]): 0.3 mg/kg/day
LOAEL (rat [20]; group: maternal, systemic / in life observation / food consumption / food consumption): 0.2 mg/kg/day
LEL (rat [20]; [46]): 0.4 mg/kg/day
NEL (rat [20]; [46]): 0.3 mg/kg/day
NOAEL (rat [20]; [46]): 0.1 mg/kg/day
